Results as given in US11840686B2, “Modulation of prekallikrein (PKK) expression” (Ionis Pharmaceuticals, Inc., priority 2013, dated 2023).
Strand notation (5' to 3'): a small letter for the sugar, then the base; units joined by * are phosphorothioate-linked, units joined directly phosphodiester-linked; [ ] holds rarer units or linkages, { } end groups; capitals alone tell only the bases. e = 2'-O-(2-methoxyethyl) (MOE); [5mC] = 5-methylcytosine; d = 2'-deoxy (DNA)

Test system: human PKK mRNA
Assay: Antisense inhibition of human PKK mRNA in HepaRG cells, 5,000 nM (Example 2)
Format: cell-based
In short: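 Chimeric MOE gapmers with full phosphorothioate backbones were tested once at 5,000 nM in electroporated HepaRG cells. After about 24 hours, quantitative PCR measured PKK mRNA relative to untreated control cells.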

[1] = human PKK mRNA, HepaRG cells, 5,000 nM antisense oligonucleotide, Table 18
[2] = HepaRG cells, 5,000 nM antisense oligonucleotide, 5-10-5 gapmers, Table 17
[3] = human PKK mRNA in HepaRG cells, 5-10-5 gapmers, Table 14
[4] = human PKK mRNA, HepaRG cells, 5-10-5 motif oligonucleotides targeting SEQ ID NO: 1 and 10
[5] = HepaRG cells, 5,000 nM antisense oligonucleotide, human PKK mRNA, Table 18
[6] = HepaRG cells, electroporation with 5,000 nM antisense oligonucleotide, approximately 24 hours, PKK mRNA by RT-PCR (RTS3454), relative to untreated control cells, Table 6 experiment
[7] = HepaRG cells, electroporation with 5,000 nM antisense oligonucleotide, approximately 24 hours, PKK mRNA by RT-PCR (RTS3454), relative to untreated control cells, Table 5 experiment
[8] = HepaRG cells, electroporation, 5,000 nM antisense oligonucleotide, approx. 24 hours, primer probe set RTS3454, relative to untreated control cells, Table 12
[9] = Table 7, HepaRG cells, electroporation with 5,000 nM antisense oligonucleotide, approx. 24 hours, PKK mRNA by RT-PCR (RTS3454), relative to untreated control cells
[10] = Table 8, HepaRG cells, electroporation with 5,000 nM antisense oligonucleotide, approx. 24 hours, PKK mRNA by RT-PCR (RTS3454), relative to untreated control cells
[11] = HepaRG cells, 5,000 nM antisense oligonucleotide, 5-10-5 gapmers, Table 16
[12] = HepaRG cells, electroporation, 5,000 nM antisense oligonucleotide, approx. 24 hours, primer probe set RTS3454, relative to untreated control cells, Table 11

Substance: 548760 (antisense eT*eA*eA*e[5mC]*dA*dG*dT*dA*dT*d[5mC]*dA*d[5mC]*dT*eG*eT*eA*e[5mC]) [compound 548760]
- % inhibition [1]: 53%

Substance: 547081 (e[5mC]*eT*eG*eT*eA*dG*dT*d[5mC]*d[5mC]*dA*d[5mC]*dT*dA*d[5mC]*dA*e[5mC]*eA*eG*e[5mC]*eA; antisense) [compound 547081]
- % inhibition [2]: 83%

Substance: 546851 (eA*eG*eT*eA*eT*d[5mC]*dA*d[5mC]*dT*dG*dT*d[5mC]*d[5mC]*dT*dA*eT*eA*eT*e[5mC]*eA; antisense) [compound 546851]
- % inhibition [3]: 81%

Substance: 546811 (eT*eG*eG*eA*e[5mC]*dA*dT*d[5mC]*d[5mC]*dT*dT*d[5mC]*d[5mC]*d[5mC]*d[5mC]*eT*e[5mC]*eG*e[5mC]*eA; antisense) [compound 546811]
- % inhibition (Table 13, human PKK mRNA in HepaRG cells, 5-10-5 gapmers): 49%

Substance: 547631 (antisense e[5mC]*eA*e[5mC]*eT*eG*dT*d[5mC]*d[5mC]*dT*dA*dT*dA*dT*d[5mC]*dA*e[5mC]*eT*e[5mC]*eT*eA) [compound 547631]
- % inhibition [4]: 85%

Substance: 547591 (e[5mC]*e[5mC]*eT*eA*eT*dA*dA*d[5mC]*dT*dA*dT*dA*dA*d[5mC]*dA*eG*eT*eA*eT*e[5mC]; antisense) [compound 547591]
- % inhibition [3]: 23%

Substance: 548711 (DNA e[5mC]*eT*eG*dT*dA*d[5mC]*dT*dA*dG*dT*dT*dT*d[5mC]*e[5mC]*eT*eA; antisense) [compound 548711]
- % inhibition [5]: 21%

Substance: 548719 (DNA eG*eT*eA*d[5mC]*dT*dA*dG*dT*dT*dT*d[5mC]*d[5mC]*dT*eA*eT*eA*eA; antisense) [compound 548719]
- % inhibition [5]: 0%

Substance: 547342 (antisense eA*eT*eT*eA*eA*dA*dA*dT*dT*dG*dA*d[5mC]*dT*d[5mC]*d[5mC]*eT*e[5mC]*eT*e[5mC]*eA) [compound 547342]
- % inhibition [6]: 66%

Substance: 547724 (eG*eA*eT*eG*e[5mC]*dA*dT*d[5mC]*d[5mC]*dA*dA*d[5mC]*dA*d[5mC]*dT*eT*eA*e[5mC]*e[5mC]*e[5mC]; antisense) [compound 547724]
- % inhibition [2]: 16%

Substance: 547269 (eA*eA*eT*eG*eA*dA*d[5mC]*dG*dG*dT*d[5mC]*dT*dT*d[5mC]*dA*eA*eG*e[5mC]*eT*eG; antisense) [compound 547269]
- % inhibition [7]: 56%

Substance: 546421 (eT*e[5mC]*eA*eA*eG*d[5mC]*dT*dG*dT*dT*d[5mC]*dT*dA*dA*dT*eG*eT*eG*eG*e[5mC]; antisense) [compound 546421]
- % inhibition [8]: 71%

Substance: 547390 (eA*eT*e[5mC]*e[5mC]*eA*dG*dA*dT*dA*dT*dG*dG*dT*dG*dT*eT*eT*eT*e[5mC]*eT; antisense) [compound 547390]
- % inhibition [9]: 63%

Substance: 547300 (antisense eG*eA*eA*e[5mC]*eT*dT*dG*d[5mC]*dT*dG*dG*dA*dA*dG*dA*eA*eA*eA*e[5mC]*eT) [compound 547300]
- % inhibition [7]: 37%

Substance: 547419 (e[5mC]*eT*eT*eA*eA*dG*dA*dA*dA*d[5mC]*dA*d[5mC]*dT*dT*dA*e[5mC]*eA*e[5mC]*eT*eT; antisense) [compound 547419]
- % inhibition [10]: 51%

Substance: 547720 (eG*eA*eA*eA*eG*dA*d[5mC]*dG*dG*d[5mC]*d[5mC]*dA*dA*dT*dG*eG*eG*eA*eA*eA; antisense) [compound 547720]
- % inhibition [11]: 8%

Substance: 547673 (eG*eA*eA*eT*eA*dT*d[5mC]*dA*d[5mC]*dT*dG*dT*d[5mC]*d[5mC]*dT*eA*eT*eA*eA*e[5mC]; antisense) [compound 547673]
- % inhibition [4]: 21%

Substance: 547317 (antisense e[5mC]*eA*eG*eA*eA*dA*d[5mC]*dT*dG*d[5mC]*dA*d[5mC]*d[5mC]*dT*dG*eT*eT*e[5mC]*eG*eA) [compound 547317]
- % inhibition [6]: 75%

Substance: 547669 (eA*e[5mC]*eA*eA*e[5mC]*dT*dA*dT*dA*dA*d[5mC]*dA*dG*dT*dA*eT*e[5mC]*eA*e[5mC]*eT; antisense) [compound 547669]
- % inhibition [4]: 0%

Substance: 547355 (e[5mC]*eA*eA*eT*eT*dG*dT*dT*d[5mC]*d[5mC]*dG*dG*dT*dA*d[5mC]*eT*e[5mC]*eT*eG*e[5mC]; antisense) [compound 547355]
- % inhibition [6]: 77%

Substance: 547440 (antisense eT*e[5mC]*e[5mC]*eT*eA*dT*dG*dA*dG*dT*dG*dA*d[5mC]*d[5mC]*d[5mC]*eT*e[5mC]*e[5mC]*eA*e[5mC]) [compound 547440]
- % inhibition [10]: 67%

Substance: 546860 (e[5mC]*eT*eA*eG*eT*dT*dT*d[5mC]*d[5mC]*dT*dA*dT*dA*dA*d[5mC]*eT*eA*eT*eA*eA; antisense) [compound 546860]
- % inhibition [3]: 36%

Substance: 546901 (eA*e[5mC]*eT*eG*eT*d[5mC]*d[5mC]*dT*dA*dT*dA*dA*d[5mC]*dT*dA*eT*eA*eA*e[5mC]*eA; antisense) [compound 546901]
- % inhibition [4]: 56%

Substance: 546979 (eA*e[5mC]*eT*eG*eT*dT*dG*dT*d[5mC]*d[5mC]*dA*dT*dA*dG*d[5mC]*eA*eG*e[5mC]*eA*eT; antisense) [compound 546979]
- % inhibition [11]: 71%

Substance: 547689 (antisense eG*eT*eA*eA*e[5mC]*dA*dA*dT*dA*dT*d[5mC]*dA*d[5mC]*dT*dG*eT*e[5mC]*e[5mC]*eT*eA) [compound 547689]
- % inhibition [11]: 73%

Substance: 547336 (antisense eT*eT*eT*eA*eT*dA*dA*dA*dT*dG*dT*d[5mC]*dT*d[5mC]*dG*eA*eT*eG*eG*e[5mC]) [compound 547336]
- % inhibition [6]: 81%

Substance: 546136 (eG*eG*eA*eG*eG*dT*dG*dA*dG*dT*d[5mC]*dT*d[5mC]*dT*dT*eG*eT*e[5mC]*eA*e[5mC]; antisense) [compound 546136]
- % inhibition [7]: 86%

Substance: 547519 (antisense e[5mC]*e[5mC]*eA*eG*eA*d[5mC]*dA*dT*dT*dG*dT*d[5mC]*d[5mC]*dT*d[5mC]*eA*eG*e[5mC]*eA*eG) [compound 547519]
- % inhibition [12]: 76%

Substance: 547527 (antisense e[5mC]*eT*e[5mC]*eA*eG*dT*dT*dG*d[5mC]*dG*dA*d[5mC]*d[5mC]*dT*d[5mC]*eG*e[5mC]*eA*eT*eT) [compound 547527]
- % inhibition [12]: 58%

Substance: 547695 (antisense eA*e[5mC]*eT*eG*eT*d[5mC]*d[5mC]*dT*dA*dT*dA*dA*d[5mC]*dT*dA*eT*eT*eA*e[5mC]*eA) [compound 547695]
- % inhibition [11]: 31%

Substance: 547596 (antisense eT*eA*e[5mC]*eT*eA*dG*dT*dT*dT*d[5mC]*d[5mC]*dT*dA*dT*dA*eA*e[5mC]*eT*eA*eT) [compound 547596]
- % inhibition [3]: 14%

Substance: 546324 (antisense eG*eG*eT*eA*eT*dA*dA*dA*dT*dT*dG*dT*dG*d[5mC]*dT*eT*eG*eT*eG*eT) [compound 546324]
- % inhibition (Table 9 experiment, HepaRG cells, 20,000 cells per well, electroporation with 5,000 nM antisense oligonucleotide, approx. 24 hours, PKK mRNA by RT-PCR (RTS3454), relative to untreated control cells): 73%
- % inhibition (Table 10 experiment, HepaRG cells, 20,000 cells per well, electroporation with 5,000 nM antisense oligonucleotide, approx. 24 hours, PKK mRNA by RT-PCR (RTS3454), relative to untreated control cells): 82%

Substance: 547361 (eG*e[5mC]*eA*eA*e[5mC]*d[5mC]*dA*dA*dT*dT*dT*d[5mC]*dT*dG*dA*eA*eA*eG*eG*eG; antisense) [compound 547361]
- % inhibition [6]: 46%

Substance: 546230 (antisense eG*eT*eG*eT*eG*d[5mC]*d[5mC]*dA*d[5mC]*dT*dT*dT*d[5mC]*dA*dG*eA*eT*eG*eT*eT) [compound 546230]
- % inhibition [9]: 70%

Substance: 547494 (antisense eT*eG*eG*eT*eG*dA*d[5mC]*dT*dG*d[5mC]*dA*dT*d[5mC]*dT*dG*eA*eG*e[5mC]*eT*eT) [compound 547494]
- % inhibition [12]: 70%

Substance: 546199 (antisense eT*eG*eG*e[5mC]*eA*dT*dT*d[5mC]*dT*dT*d[5mC]*dA*dA*d[5mC]*dA*e[5mC]*eT*eG*e[5mC]*eT) [compound 546199]
- % inhibition [6]: 97%

Substance: 548736 (DNA eT*eA*eT*e[5mC]*dA*d[5mC]*dT*dG*dT*dA*d[5mC]*dT*dA*dG*eT*eT*eT; antisense) [compound 548736]
- % inhibition [1]: 21%

Substance: 547502 (antisense eT*e[5mC]*eA*eG*eG*dT*dT*dG*dT*dA*dA*dA*dA*dA*dT*eT*eG*e[5mC]*e[5mC]*eT) [compound 547502]
- % inhibition [12]: 64%

Substance: 546419 (eT*eT*e[5mC]*eT*eA*dA*dT*dG*dT*dG*dG*d[5mC]*dA*d[5mC]*dT*eG*e[5mC]*eA*eG*eG; antisense) [compound 546419]
- % inhibition [8]: 65%

Substance: 546271 (eA*eG*eA*eA*eA*d[5mC]*dA*d[5mC]*dT*dT*dA*d[5mC]*dA*d[5mC]*dT*eT*e[5mC]*eT*e[5mC]*eT; antisense) [compound 546271]
- % inhibition [10]: 60%

Substance: 547692 (antisense e[5mC]*eA*e[5mC]*eT*eG*dT*dA*d[5mC]*d[5mC]*dT*dA*dT*dA*dA*d[5mC]*eT*eG*eT*eA*eA) [compound 547692]
- % inhibition [11]: 47%

Substance: 547504 (antisense eG*eA*eA*e[5mC]*eT*d[5mC]*dA*dG*dG*dT*dT*dG*dT*dA*dA*eA*eA*eA*eT*eT) [compound 547504]
- % inhibition [12]: 37%
